{"source": "patent US4925664A", "about": "“Spider toxins and methods for their use as blockers of calcium channels and amino acid receptor function” (priority 1986, dated 1990)"}
{"tested_on": "transmission between the cochlear nerve afferents and the cochlear nucleus neurons", "experiment": "Blockade of synaptic transmission in chick cochlear nucleus, in vitro chick brain stem preparation (field potential)", "type": "cell-based", "details": "conventional EAA receptor antagonists and agonists", "procedure": "The toxin was bath-applied to cochlear nucleus neurons in an in vitro preparation of chick brain stem.\nIn order to test the effects of the spider venom, late embryos or hatchling chickens were used in all experiments. Brain stems were removed and maintained in vitro using methods known and described in the art, except that the temperature in the recording chamber was held at 32° C. The tissue was superfused in avian Tyrode solution at about 1 ml per minute.\nThe field potential evoked by direct electrical stimulation of the cochlear nerve was recorded with a 4M potassium acetate electrode. The short latency component of the field potential reflects the compound action […] of cochlear nerve axons. This afferent volley is followed by a negativity representing the postsynaptic response of NM neurons."}
{"smiles": "O=C(O)[C@H]1CCCN[C@H]1C(=O)O", "note": "(relative stereo) [cis-2,3-piperidine dicarboxylic acid]", "concentration required to completely suppress transmission": "millimolar range"}
{"smiles": "N[C@H](CCC(=O)NCC(=O)O)C(=O)O", "note": "[-D-glutamylglycine]", "concentration required to completely suppress transmission": "millimolar range"}
{"smiles": "N[C@@H](Cn1oc(=O)[nH]c1=O)C(=O)O", "note": "[quisqualate]", "concentration required to completely suppress transmission": "millimolar concentrations"}
